Assay [1] in a line: inhibition of carrageenin-induced foot edema test (carrageenin edema, CE). To be noted: oral, text: millimoles (μM)/kg.). The assay is classed as in vivo. How it is done:
(§1) Anti-inflammatory activity was determined using (1) the inhibition of carrageenin-induced foot edema test essentially described by […] and (2) a modification of the inhibition of adjuvant-induced arthritis test described by Pierson, J. Chronic Diseases 16, 863 (1963) and Glenn et al., Am. J. Vet. Res. 26, 1180 (1965).
(§2) The phenyl-lower-alkylamines of formula I of the invention have been tested in the carrageenin edema (CE) and adjuvant arthritis (AA) tests and found to have anti-inflammatory activity. Data so-obtained, stated in terms of percent inhibition at a dose expressed in terms of millimoles (μM)/kg.,are given below. All data were obtained on oral administration.
(The carrageenan paw model is a standard test of acute inflammation.)

Assay [2] can be described thus: inhibition of adjuvant-induced arthritis test, modified (adjuvant arthritis, AA). The assay is classed as in vivo. To be noted: oral, text: millimoles (μM)/kg.). On the procedure: as §1, §2

On to `CC(CN1CCCCC1CC1CCCCC1)c1cccc(Br)c1` (stereo not drawn) [Example 4, 2-cyclohexylmethyl-1-[2-(3-bromophenyl)propyl]piperidine], for which the “CE (% Inhib.)” value in assay [1] (dose 0.005 (head: mmol/kg) worked out at 7%; in assay [1] (dose 0.02 (head: mmol/kg), 4%; in assay [1] (dose 0.08 (head: mmol/kg) it was 0%.
Regarding `CCN(CC)CCCC(C)NCC(C)c1ccc(CC(C)C)cc1` (stereo not drawn) [Example 2, N-[2-(4-isobutylphenyl)propyl]-N-[5-(N',N'-diethylamino)-2-pentyl]amine], the “CE (% Inhib.)” value in assay [1] (dose 0.02 (head: mmol/kg) came to 0%; in assay [1] (dose 0.08 (head: mmol/kg), 17%; in assay [1] (dose 0.324 (head: mmol/kg) it was 39%. Further, the “AA (% Inhib.)” value in assay [2] (dose 0.01 (head: mmol/kg) is recorded as 32%; in assay [2] (dose 0.04 (head: mmol/kg), 34%; in assay [2] (dose 0.16 (head: mmol/kg), 63%.
With `CC(C)Cc1ccc(C(C)CN2CCCCC2CC2CCCCC2)cc1` (stereo not drawn) [Example 1, 2-cyclohexylmethyl-1-[2-(4-isobutylphenyl)propyl]piperidine], the “CE (% Inhib.)” value is on record as 0% in assay [1] (dose 0.08 (head: mmol/kg) and 5% in assay [1] (dose 0.324 (head: mmol/kg). The “AA (% Inhib.)” value in assay [2] (dose 0.324 (head: mmol/kg) is 75%.
The like results for `CC(C)Cc1ccc(C(C)CN2C(C)CCCC2C)cc1` (stereo not drawn) [Example 3, 2,6-dimethyl-1-[2-(4-isobutylphenyl)propyl]piperidine] were, in that order, 0%, 8% and 55%.
For the molecule `CC(CN1CCCCC1CC1CCCCC1)c1ccccc1` (stereo not drawn) [Example 5, 2-cyclohexylmethyl-1-(2-phenylpropyl)piperidine], the results for the “CE (% Inhib.)” value in assay [1] (dose 0.005 (head: mmol/kg), in assay [1] (dose 0.02 (head: mmol/kg) and in assay [1] (dose 0.08 (head: mmol/kg) were 0%, 16% and 13%, respectively.

Source of the values: US3965105A, “Phenyl-lower-alkylamines” (Sterling Drug Inc., priority 1975, dated 1976).
